{"source": "BindingDB's records for PubMed 36126447", "about": "(Acharya & Bm Reddy College of Pharmacy, 2022)", "target": "Programmed cell death 1 ligand 1 (Homo sapiens) (UniProt Q9NZQ7)", "sequence (Q9NZQ7 whole entry, looked up)": "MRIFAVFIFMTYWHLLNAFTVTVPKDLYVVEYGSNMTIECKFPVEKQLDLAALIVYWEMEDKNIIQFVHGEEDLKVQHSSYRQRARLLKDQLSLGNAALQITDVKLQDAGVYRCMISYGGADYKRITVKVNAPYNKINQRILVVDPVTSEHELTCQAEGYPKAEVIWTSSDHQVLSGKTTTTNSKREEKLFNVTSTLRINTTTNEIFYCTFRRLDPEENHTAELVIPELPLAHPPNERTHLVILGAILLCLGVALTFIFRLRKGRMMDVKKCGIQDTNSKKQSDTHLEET", "test": "Inhibition of human PD-1/PDL1 protein-protein interaction by luminescence proximity homogeneous assay", "data": [{"smiles": "Cc1c(COc2ccc(C[C@H](N)C(=O)O)cc2Br)cccc1-c1ccccc1", "values": [{"measurement": "IC50", "result": 1500, "unit": "nM"}]}]}
